{"source": "patent US20240209302A1", "about": "“SYSTEMS, METHODS, AND DEVICES FOR EX VIVO ANALYSIS OF RESECTED TISSUE SAMPLES” (The United States of America,as represented by the …, priority 2020, published 2024)", "assay_type_in_all_cases": "cell-based, human", "key": {"[1]": {"system": "SDH-B deficient GIST metastases to the peritoneum", "test": "Decitabine treatment of GIST tissue in ex vivo perfusion system (H&E, IHC, live imaging)", "details": "0-10 μM in perfusate; tissues harvested after 4 days", "excerpt": "The system of FIG. 7A is also well-suited as a translational tool and/or as a tool for enrollment into clinical trials, especially where pre-clinical models are otherwise non-existent. For example, SDH-B deficient GIST is a rare subtype driven by epigenetic silencing of the gene, unresponsive to conventional agents (imatinib) and with no available cell lines or mouse models. Tissue from a patient with SDH-B deficient GIST was utilized in the system of FIG. 7A to investigate decitabine, a potential treatment option being evaluated for this population. Using early demethylation markers as a read-out, changes associated with decitabine treatment at physiologic and supraphysiologic doses were not detected. […] Sample platforms of tissue from the patient with GIST metastases to the peritoneum were cultured in perfusate supplemented with 0-10 μM decitabine. […] Stack projections of live images of control sample at day 0 and day 3 as well as a sample treated with 5 μM decitabine with fluorophore-conjugated antibodies against CD45 and CD117 also show no changes in the decitabine-treated tissue.\nIn any of the above discussed examples, tissue from system 700 was subject to similar histopathologic evaluations. […] Viability on H&E was defined as preservation of normal tissue architecture, intact nuclei, and normal population of immune cells (qualitative and quantitative). […]"}, "[2]": {"system": "resected cholangiocarcinoma tumor and liver capsule", "test": "Tivozanib treatment of cholangiocarcinoma tissue in ex vivo perfusion system (H&E, Ki67)", "method": "In another example, the system of FIG. 7A was used to identify a new target in patients with cholangiocarcinoma. The target is a kinase, SLK, that activates AKT signaling leading to aggressive tumor biology and poor patient outcomes. Although no SLK-specific inhibitor exists, the kinome profiles of available kinase inhibitors was evaluated, and tivozanib was identified. Using tissue from a patient with cholangiocarcinoma in the system of FIG. 7A, tivozanib was evaluated. […] Resected cholangiocarcinoma tumor as well as liver capsule mounted on sample platforms treated with 0-1 mg/ml tivozanib were prepared for IHC, stained with H&E and Ki67 antibody. Cells in control and drug-treated platforms were evaluated for viability, degeneration and necrosis.\nIn any of the above discussed examples, tissue from system 700 was subject to similar histopathologic evaluations. For example, the tissues were preserved in the 10% neutral buffered formalin, then through the tissue processor and embedded in paraffin and cut at 5-micron sections for hematoxylin and eosin (H&E) slides. Slides were prepared for H&E staining and immunohistochemistry, respectively to detect CD3 (T cells), CD68 (macrophages), Ki-67 and MIBI (mitotic activity). CD3 and CD68 were predilute antibodies as purchased, while Ki-67 and (MIB-1) were run at 1:200 dilution. All stains were done on an automated immunostainer (Ventana Benchmark Ultra). Viability on H&E was defined as preservation of normal tissue architecture, intact nuclei, and normal population of immune cells (qualitative and quantitative). Each sample was compared against day 0 control samples. Ki67 or stains were performed to assess proliferative activity of the tumor cells. Samples stained with Ki67 or MIB1 on day 4 were compared to day 0 samples to confirm no change in proliferative activity."}, "[3]": {"system": "liver capsule tissue from a colorectal cancer patient with liver metastases (colorectal adenocarcinoma)", "test": "Check-point inhibitor evaluation in ex vivo perfusion system, colorectal cancer tissue (timeseries imaging)", "details": "5 μg/ml for 4 hr", "method": "(§1) The system of FIG. 7A is well-suited to evaluate immunotherapeutic agents. Given that check-point inhibitors have made their way into the clinic for seemingly most solid tumors, such inhibitors were evaluated in the system of FIG. 7A using a tumor from a patient with gastric adenocarcinoma and a tumor from a patient with colorectal adenocarcinoma. Neither of these histologies have significant response rates to check-point inhibitors outside of select genomic subpopulations, which was not applicable to either patient in this example. FIGS. 12A-12D illustrates results of this example.\n(§2) In the top panel, sample platforms with sidewall peritoneum from a gastric cancer patient were incubated with immune checkpoint inhibitor pembrolizumab for 2 days followed by Alexa488CD44/Alexa594CD45 antibodies. Maximum projections of 2-photon images illustrate the intimate contact between CD45-positive cells and the cancer cells. The bottom panel provides a timeseries montage of images taken from liver capsule tissue mounted on sample platforms from a colorectal cancer patient with liver metastases incubated with 5 μg/ml of pembrolizumab for 4 hr. […]\n(§3) Image acquisition was performed on an inverted Leica SP8 setup using multiphoton excitation at 870 nm together with a 25×/0.95 W VISIR lens. […] Images were analyzed using ImageJ software. […]"}, "[4]": {"system": "sidewall peritoneum from a gastric cancer patient (gastric adenocarcinoma)", "test": "Check-point inhibitor evaluation in ex vivo perfusion system, gastric cancer tissue (2-photon imaging)", "details": "incubated for 2 days; Alexa488CD44/Alexa594CD45 antibodies", "method": "as §1, §2, §3"}}, "data": [{"molecule": "Nc1ncn([C@H]2C[C@H](O)[C@@H](CO)O2)c(=O)n1", "note": "[decitabine]", "values": [{"measurement": "methylation status of GIST (SDHB, 5-HMC, 5-MC IHC)", "setting": "[1]", "value": "no effect"}, {"measurement": "proliferation activity of GIST (Ki67)", "setting": "[1]", "value": "no effect"}]}, {"molecule": "COc1cc2nccc(Oc3ccc(NC(=O)Nc4cc(C)on4)c(Cl)c3)c2cc1OC", "note": "[tivozanib]", "values": [{"measurement": "cell death in liver metastases (viability, degeneration, necrosis)", "setting": "[2]; 0-1 mg/ml, FIGS. 12C-12D", "value": "induces cell death"}, {"measurement": "tumor cell effect at physiologic doses", "setting": "[2]; physiologic doses", "value": "tumor cell degeneration"}, {"measurement": "tumor cell effect at supraphysiologic concentrations", "setting": "[2]; supraphysiologic concentrations", "value": "frank necrosis"}]}, {"molecule": "pembrolizumab", "values": [{"measurement": "immune cell engagement with tumor cells", "setting": "[3]", "value": "Immune cell engagement was observed"}, {"measurement": "tumor cell lysis / apoptosis of CD44-positive cancer cells bound by CD45-positive cells", "setting": "[3]", "value": "captured tumor cell lysis"}, {"measurement": "binding of immune cells (CD45-positive) to cancer cells", "setting": "[4]", "value": "stimulates binding of immune cells to cancer cells"}]}]}
